# In patent US20240101576A1, “HETEROCYCLIC INHIBITORS OF EGFR AND/OR HER2, FOR USE IN THE TREATMENT OF CANCER” (Scorpion Therapeutics, Inc., priority 2020, published 2024):
# Key:
# Format in all cases: cell-based
# EGFR WT (Ba/F3 cells) = target: T1, EGFR WT (Ba/F3 cells) (Homo sapiens, UniProt P00533); experiment: Inhibitor activity on EGFR-dependent cell growth (CellTiter-Glo, 72 h), Ba/F3 EGFR WT; details: read-out: BaF3 WT IC50
# T1 construct: expressed in transfected cells; host or cells: Ba/F3 (murine pro-B cells), retroviral transduction, puromycin selection, maintained with EGF
# T1 sequence (P00533 25-1210): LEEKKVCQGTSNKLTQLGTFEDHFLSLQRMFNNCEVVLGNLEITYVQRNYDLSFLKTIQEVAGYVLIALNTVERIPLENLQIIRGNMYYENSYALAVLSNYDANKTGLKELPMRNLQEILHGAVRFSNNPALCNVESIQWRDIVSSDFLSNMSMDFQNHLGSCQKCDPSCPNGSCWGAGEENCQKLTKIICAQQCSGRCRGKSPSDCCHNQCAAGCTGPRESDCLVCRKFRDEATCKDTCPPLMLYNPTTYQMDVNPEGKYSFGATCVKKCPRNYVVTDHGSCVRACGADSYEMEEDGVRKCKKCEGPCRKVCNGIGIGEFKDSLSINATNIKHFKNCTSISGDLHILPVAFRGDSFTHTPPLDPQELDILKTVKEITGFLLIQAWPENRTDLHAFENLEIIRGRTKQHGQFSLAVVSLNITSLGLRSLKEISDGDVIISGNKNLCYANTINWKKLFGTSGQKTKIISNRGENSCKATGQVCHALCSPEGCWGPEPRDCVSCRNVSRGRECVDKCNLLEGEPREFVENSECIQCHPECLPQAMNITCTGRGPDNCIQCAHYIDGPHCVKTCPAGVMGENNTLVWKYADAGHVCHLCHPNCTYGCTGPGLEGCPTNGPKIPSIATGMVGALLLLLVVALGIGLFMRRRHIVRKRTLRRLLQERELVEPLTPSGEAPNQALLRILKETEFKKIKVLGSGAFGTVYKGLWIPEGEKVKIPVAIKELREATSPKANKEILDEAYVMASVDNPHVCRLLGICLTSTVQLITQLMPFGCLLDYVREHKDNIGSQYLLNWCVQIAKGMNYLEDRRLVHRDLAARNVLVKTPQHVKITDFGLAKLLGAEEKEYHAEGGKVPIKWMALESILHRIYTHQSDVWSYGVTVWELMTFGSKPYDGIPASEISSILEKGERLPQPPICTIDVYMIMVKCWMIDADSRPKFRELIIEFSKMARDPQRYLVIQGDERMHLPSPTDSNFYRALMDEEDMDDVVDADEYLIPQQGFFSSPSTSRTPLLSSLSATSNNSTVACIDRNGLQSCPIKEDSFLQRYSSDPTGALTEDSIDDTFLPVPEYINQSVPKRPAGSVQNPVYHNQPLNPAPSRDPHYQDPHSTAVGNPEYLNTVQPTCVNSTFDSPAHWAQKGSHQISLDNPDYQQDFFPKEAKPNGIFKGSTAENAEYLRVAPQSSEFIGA
# How it was run: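 This growth assay used Ba/F3 cells that depend on wild-type EGFR and are kept in EGF without IL3. Compounds were made up as 10 mM DMSO stocks and diluted 3-fold over 10 points. 120 nL went onto 600 cells/well. After 72 hours, 40 μL CellTiter-Glo was added and luminescence read on EnVision after 30 min.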
# [1] = target: T2, EGFR exon 20 FQEA Ins A763_V764 (Ba/F3 cells) (Homo sapiens, UniProt P00533, INS763FQEA); experiment: Inhibitor activity on EGFR-dependent cell growth (CellTiter-Glo, 72 h), Ba/F3 EGFR exon 20 FQEA Ins; details: read-out: BaF3 FQEA IC50
# T2 construct: expressed in transfected cells; host or cells: Ba/F3 (murine pro-B cells), retroviral transduction, puromycin selection, IL3-independent pool
# T2 sequence (P00533 with tags, fused parts or gaps INS763FQEA): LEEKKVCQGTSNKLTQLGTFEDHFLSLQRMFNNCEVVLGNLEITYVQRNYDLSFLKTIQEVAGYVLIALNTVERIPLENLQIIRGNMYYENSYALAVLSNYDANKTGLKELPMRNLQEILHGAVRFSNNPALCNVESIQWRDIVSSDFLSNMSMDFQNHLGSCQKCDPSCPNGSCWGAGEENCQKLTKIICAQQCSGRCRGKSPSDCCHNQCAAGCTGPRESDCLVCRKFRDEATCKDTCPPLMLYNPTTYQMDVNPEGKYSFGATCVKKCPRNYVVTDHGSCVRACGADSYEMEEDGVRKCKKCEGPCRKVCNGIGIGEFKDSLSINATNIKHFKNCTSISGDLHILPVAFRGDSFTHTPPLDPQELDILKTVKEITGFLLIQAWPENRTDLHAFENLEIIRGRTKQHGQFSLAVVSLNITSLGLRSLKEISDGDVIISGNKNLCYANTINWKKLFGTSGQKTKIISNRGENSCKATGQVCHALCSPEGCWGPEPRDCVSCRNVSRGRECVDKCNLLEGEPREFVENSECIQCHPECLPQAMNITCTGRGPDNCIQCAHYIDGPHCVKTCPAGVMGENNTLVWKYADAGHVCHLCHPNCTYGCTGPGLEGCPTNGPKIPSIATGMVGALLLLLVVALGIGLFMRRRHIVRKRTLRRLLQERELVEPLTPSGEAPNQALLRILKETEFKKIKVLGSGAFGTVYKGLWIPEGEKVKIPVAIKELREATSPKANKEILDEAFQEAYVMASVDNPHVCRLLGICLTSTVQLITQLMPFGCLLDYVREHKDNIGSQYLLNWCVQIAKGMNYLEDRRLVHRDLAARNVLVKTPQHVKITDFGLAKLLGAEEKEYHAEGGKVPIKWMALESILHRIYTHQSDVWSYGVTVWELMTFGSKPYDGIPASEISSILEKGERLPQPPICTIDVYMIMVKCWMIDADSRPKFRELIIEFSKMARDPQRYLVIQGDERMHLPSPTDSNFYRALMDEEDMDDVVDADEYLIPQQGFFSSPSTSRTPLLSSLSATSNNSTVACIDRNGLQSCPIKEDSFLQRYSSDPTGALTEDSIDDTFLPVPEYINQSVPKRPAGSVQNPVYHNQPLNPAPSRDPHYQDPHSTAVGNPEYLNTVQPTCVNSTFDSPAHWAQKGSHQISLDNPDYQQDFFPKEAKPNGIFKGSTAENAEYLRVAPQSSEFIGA
# How it was run: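 Ba/F3 cells engineered with each EGFR variant were plated (400, 600 or 800 per well for L858R, L858R/C797S, and exon 19del/FQEA). They were exposed for 72 hours to compound serially diluted from a 10 mM DMSO stock. Remaining viable cells were quantified by CellTiter-Glo, and IC50 was curve-fitted.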
# [2] = target: T3, EGFR exon 20 ASV Ins V769_D770 (Ba/F3 cells) (Homo sapiens, UniProt P00533, INS769ASV); experiment: Inhibitor activity on EGFR phosphorylation (pEGFR AlphaLISA, 2 h), Ba/F3 EGFR exon 20 ASV Ins; details: EGFR phosphorylation, AlphaLISA, 2 hours; read-out: ASV IC50 (pEGFR)
# T3 construct: expressed in transfected cells; host or cells: Ba/F3 (murine pro-B cells), retroviral transduction, puromycin selection, IL3-independent pool
# T3 sequence (P00533 with tags, fused parts or gaps INS769ASV): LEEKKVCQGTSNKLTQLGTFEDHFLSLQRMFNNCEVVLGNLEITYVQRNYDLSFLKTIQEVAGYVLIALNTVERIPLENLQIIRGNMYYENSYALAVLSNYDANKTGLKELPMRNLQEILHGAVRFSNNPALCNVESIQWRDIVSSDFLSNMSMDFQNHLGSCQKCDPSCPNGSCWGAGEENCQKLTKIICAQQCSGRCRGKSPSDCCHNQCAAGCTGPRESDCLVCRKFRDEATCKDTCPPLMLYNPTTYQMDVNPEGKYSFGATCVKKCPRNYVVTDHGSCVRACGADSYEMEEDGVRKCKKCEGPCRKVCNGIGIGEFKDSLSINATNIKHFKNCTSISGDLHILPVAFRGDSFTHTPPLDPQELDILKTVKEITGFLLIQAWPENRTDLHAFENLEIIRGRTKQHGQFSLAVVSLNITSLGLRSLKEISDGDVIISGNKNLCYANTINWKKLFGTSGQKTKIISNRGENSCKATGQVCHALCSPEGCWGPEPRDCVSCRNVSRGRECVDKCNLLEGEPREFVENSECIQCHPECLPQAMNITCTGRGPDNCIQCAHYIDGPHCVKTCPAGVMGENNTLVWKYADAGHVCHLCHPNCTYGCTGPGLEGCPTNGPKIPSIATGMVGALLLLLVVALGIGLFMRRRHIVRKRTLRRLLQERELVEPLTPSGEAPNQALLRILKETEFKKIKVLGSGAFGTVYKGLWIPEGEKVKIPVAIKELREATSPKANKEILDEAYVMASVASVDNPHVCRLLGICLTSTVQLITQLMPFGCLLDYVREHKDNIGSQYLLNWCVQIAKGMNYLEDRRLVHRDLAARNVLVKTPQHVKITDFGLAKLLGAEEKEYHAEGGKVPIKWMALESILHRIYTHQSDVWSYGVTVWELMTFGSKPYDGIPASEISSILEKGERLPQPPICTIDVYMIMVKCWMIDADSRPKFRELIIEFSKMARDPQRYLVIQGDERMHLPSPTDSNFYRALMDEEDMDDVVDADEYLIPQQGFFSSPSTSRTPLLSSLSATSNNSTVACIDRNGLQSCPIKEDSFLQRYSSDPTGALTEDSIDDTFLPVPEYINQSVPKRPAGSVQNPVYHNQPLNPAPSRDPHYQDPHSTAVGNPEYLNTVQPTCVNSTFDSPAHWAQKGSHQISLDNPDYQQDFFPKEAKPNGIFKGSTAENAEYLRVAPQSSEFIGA
# Source text: Example B. Inhibitor Activity on EGFR phosphorylation (pEGFR)
# EGFR mutant Ba/F3 cells were generated by transduction with retrovirus containing vectors expressing EGFR L858R, EGFR exon 19del, EGFR L858R/C797S, EGFR exon 20 NPG Ins D770_N771, EGFR exon 20 ASV Ins V769_D770, or EGFR exon 20 SVD Ins D770_N771 genes along with a puromycin selection marker. Transduced cells are selected with puromycin for 7 days and are then be transferred into culture media without Interleukin 3 (IL3). Surviving cells are confirmed to express EGFR by Western blot and maintained as a pool. CUTO14 cells were obtained from Dr. Robert C. Doebele at the University of Colorado. The IC50 date are included in Table 6 and Table 7.
# 1.1 Cells are harvested from flask into cell culture medium and the cell number counted.
# 1.2 Cells are diluted with culture medium to the desired density and 40 μL of cell suspension is added into each well of 384-well cell culture plate and the seeding density is 50K cells/well (Ba/F3) or 12.5K cells/well (CUTO14).
# 2 Compound Preparation and Treatment
# 2.1 Test compounds are dissolved to 10 mM in a DMSO stock solution. 45 μL of stock solution is transferred to a 384 polypropylene plate (pp-plate). Perform 3-fold, 10-point dilution via transferring 15 μL compound into 30 μL DMSO using a TECAN (EVO200) liquid handler.
# 2.2 Spin plates at room temperature at 1,000 RPM for 1 minute.
# 2.3 Transfer 5 nL of diluted compound from compound source plate into the cell plate.
# 2.4 After compound treatment for 2 hours, perform pEGFR detection by AlphaLISA for compound treatment plates as described in “Detection” section.
# 3 Detection by pEGFR AlphaLISA (Perkin-Elmer)
# 3.1 Plates are removed from incubators and equilibrated at room temperature for 10 minutes, and media was removed
# 3.2 10 μL of lysis buffer is added and plates shaken at 600 rpm for 1 hr.
# 3.3 Prepare acceptor mix just before use and dispense 5 μL of acceptor mix to all the wells. Shake 350 rpm for Ihr in the dark
# 3.4 Prepare donor mix under low light conditions prior to use. Dispense 5 μL of donor mix to all the wells. Mix well on the shaker, seal and wrap in aluminum foil and incubate 1.5 hrs at room temperature in the dark
# 3.5 Transfer 18.5 μL mixture to OptiPlate 384, and read using an Envision. The IC50 date were included in Table 6 and Table 7.
# [3] = target: T3, EGFR exon 20 ASV Ins V769_D770 (Ba/F3 cells); experiment: Inhibitor activity on EGFR-dependent cell growth (CellTiter-Glo, 72 h), Ba/F3 EGFR exon 20 ASV Ins; details: read-out: BaF3 ASV IC50
# How it was run: (§1)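 IC50s derive from a sigmoidal dose–response fit of CellTiter-Glo signal. The signal was normalised between […]-treated cells and cell-free medium. Ba/F3 mutant-EGFR cells, seeded at 400–800/well depending on the line, had 72 h of exposure to a 10-point, 3-fold compound series.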
# [4] = target: T4, EGFR exon 20 SVD Ins D770_N771 (Ba/F3 cells) (Homo sapiens, UniProt P00533, INS770SVD); experiment: Inhibitor activity on EGFR-dependent cell growth (CellTiter-Glo, 72 h), Ba/F3 EGFR exon 20 SVD Ins; details: read-out: BaF3 SVD IC50
# T4 construct: expressed in transfected cells; host or cells: Ba/F3 (murine pro-B cells), retroviral transduction, puromycin selection, IL3-independent pool
# T4 sequence (P00533 with tags, fused parts or gaps INS770SVD): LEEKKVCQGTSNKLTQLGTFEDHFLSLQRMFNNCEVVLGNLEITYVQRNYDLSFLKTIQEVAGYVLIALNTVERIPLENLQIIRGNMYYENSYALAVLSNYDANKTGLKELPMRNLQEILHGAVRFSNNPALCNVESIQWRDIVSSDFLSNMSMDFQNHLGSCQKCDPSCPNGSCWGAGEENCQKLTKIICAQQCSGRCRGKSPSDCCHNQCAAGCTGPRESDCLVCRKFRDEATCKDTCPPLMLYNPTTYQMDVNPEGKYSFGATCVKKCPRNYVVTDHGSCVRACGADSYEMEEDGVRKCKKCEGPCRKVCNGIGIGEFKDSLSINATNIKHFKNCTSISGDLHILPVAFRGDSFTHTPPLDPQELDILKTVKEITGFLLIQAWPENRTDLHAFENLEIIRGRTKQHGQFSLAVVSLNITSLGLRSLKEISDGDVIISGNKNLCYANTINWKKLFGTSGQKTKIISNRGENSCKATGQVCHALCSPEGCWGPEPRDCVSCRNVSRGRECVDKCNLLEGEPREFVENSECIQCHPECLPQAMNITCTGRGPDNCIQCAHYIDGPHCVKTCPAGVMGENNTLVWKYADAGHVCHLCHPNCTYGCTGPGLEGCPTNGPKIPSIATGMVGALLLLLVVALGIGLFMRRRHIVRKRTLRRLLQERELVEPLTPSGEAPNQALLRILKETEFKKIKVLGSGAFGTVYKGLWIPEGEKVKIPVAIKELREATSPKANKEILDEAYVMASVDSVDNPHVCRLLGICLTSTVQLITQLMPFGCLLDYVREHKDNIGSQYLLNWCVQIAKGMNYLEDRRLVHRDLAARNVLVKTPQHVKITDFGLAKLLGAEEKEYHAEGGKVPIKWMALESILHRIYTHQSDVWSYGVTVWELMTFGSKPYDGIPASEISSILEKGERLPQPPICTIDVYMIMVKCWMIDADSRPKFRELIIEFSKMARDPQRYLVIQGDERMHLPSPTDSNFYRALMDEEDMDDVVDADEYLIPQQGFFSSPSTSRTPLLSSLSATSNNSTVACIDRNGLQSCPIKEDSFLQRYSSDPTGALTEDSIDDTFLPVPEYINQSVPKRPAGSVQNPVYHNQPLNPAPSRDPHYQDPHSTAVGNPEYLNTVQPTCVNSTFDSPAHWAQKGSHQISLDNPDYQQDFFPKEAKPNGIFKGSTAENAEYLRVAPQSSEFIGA
# How it was run: as §1
SMILES,IC50 (EGFR WT (Ba/F3 cells)),IC50 [1],IC50 [2],IC50 [3],IC50 [4]
"COc1c(Cl)cccc1Nc1c(-c2ccnc(N)c2F)[nH]c2c1C(=O)NCC2 [Compound 686, 2-(2-amino-3-fluoropyridin-4-yl)-3-[(3-chloro-2-methoxyphenyl)amino]-1H,5H,6H,7H-pyrrolo[3,2-c]pyridin-4-one; trifluoroacetic acid]",100 to 1000 nM,100 to 1000 nM,< 100 nM,< 100 nM,< 100 nM
"Cc1c(F)cccc1Nc1c(-c2nc(N)ncc2F)[nH]c2c1C(=O)NCC2 [Compound 689, 2-(2-amino-5-fluoropyrimidin-4-yl)-3-[(3-fluoro-2-methylphenyl)amino]-1H,5H,6H,7H-pyrrolo[3,2-c]pyridin-4-one]",–,100 to 1000 nM,100 to 1000 nM,> 1000 nM,> 1000 nM
"COc1c(Cl)cccc1Nc1c(-c2nc(N)ncc2C#N)[nH]c2c1C(=O)NCC2 [Compound 693, 2-amino-4-[3-[(3-chloro-2-methoxyphenyl)amino]-4-oxo-1H,5H,6H,7H-pyrrolo[3,2-c]pyridin-2-yl]pyrimidine-5-carbonitrile]",> 1000 nM,> 1000 nM,> 1000 nM,> 1000 nM,> 1000 nM
"COc1c(F)cccc1Nc1c(-c2ccnc3ccc(NC4(C)CC4)nc23)[nH]c2c1C(=O)NCC2 [Compound 695, 3-[(3-fluoro-2-methoxyphenyl)amino]-2-[6-[(1-methylcyclopropyl)amino]-1,5-naphthyridin-4-yl]-1H,5H,6H,7H-pyrrolo[3,2-c]pyridin-4-one; formic acid]",< 100 nM,< 100 nM,< 100 nM,< 100 nM,< 100 nM
"CCOc1c(F)cccc1Nc1c(-c2ccnc(N)n2)[nH]c2c1C(=O)NCC2 [Compound 699, 2-(2-aminopyrimidin-4-yl)-3-[(2-ethoxy-3-fluorophenyl)amino]-1H,5H,6H,7H-pyrrolo[3,2-c]pyridin-4-one; trifluoroacetic acid]",> 1000 nM,> 1000 nM,100 to 1000 nM,> 1000 nM,> 1000 nM
"CCOc1c(Cl)cccc1Nc1c(-c2ccnc(N)n2)[nH]c2c1C(=O)NCC2 [Compound 700, 2-(2-aminopyrimidin-4-yl)-3-[(3-chloro-2-ethoxyphenyl)amino]-1H,5H,6H,7H-pyrrolo[3,2-c]pyridin-4-one; trifluoroacetic acid]",> 1000 nM,> 1000 nM,100 to 1000 nM,–,–
Nc1nccc(-c2[nH]c3c(c2Nc2ccc(Cl)cc2)C(=O)NCC3)n1 [compound 192],> 1000 nM,> 1000 nM,> 1000 nM,–,–
Nc1nccc(-c2[nH]c3c(c2Nc2cccc(Cl)c2)C(=O)NCC3)n1 [compound 193],100 to 1000 nM,100 to 1000 nM,< 100 nM,–,–
Nc1nccc(-c2[nH]c3c(c2Nc2ccccc2Cl)C(=O)NCC3)n1 [compound 194],100 to 1000 nM,100 to 1000 nM,< 100 nM,–,–
COc1c(C)cccc1Nc1c(-c2ccnc(N)n2)[nH]c2c1C(=O)NCC2 [compound 305],> 1000 nM,100 to 1000 nM,< 100 nM,–,–

# Now from value to molecule:
IC50 (EGFR WT (Ba/F3 cells)),IC50 [1],IC50 [2],IC50 [3],IC50 [4],SMILES
100 to 1000 nM,< 100 nM,< 100 nM,< 100 nM,< 100 nM,COc1c(Cl)cccc1Nc1c(-c2ccnc(N)n2)[nH]c2c1C(=O)NC[C@@H]2C [186a]
100 to 1000 nM,100 to 1000 nM,< 100 nM,< 100 nM,< 100 nM,COc1c(Cl)cccc1Nc1c(-c2ccnc(N)n2)[nH]c2c1C(=O)NC[C@H]2C [186b]
> 1000 nM,100 to 1000 nM,< 100 nM,100 to 1000 nM,100 to 1000 nM,COc1c(Cl)cccc1Nc1c(-c2ccnc(N)n2)[nH]c2c1C(=O)N[C@@H](C)C2 [187a]
100 to 1000 nM,100 to 1000 nM,< 100 nM,< 100 nM,< 100 nM,COc1c(Cl)cccc1Nc1c(-c2ccnc(N)n2)[nH]c2c1C(=O)N[C@H](C)C2 [187b]
